From patent US11602534B2, “Pyrimidine derivative kinase inhibitors” (HEFEI INSTITUTES OF PHYSICAL SCIENCE, CHINESE ACADEMY OF …, priority 2017, dated 2023)
Where a name gives a salt, the structure may show the parent alone.

Columns and labels:
[1] = test system: BaF3; test: Proliferation of BaF3 cells, CCK8 cell viability assay; format: cell-based; settings: Mus musculus, 72 hours
From the text: (§1) In this example the following cells were used: […] (purchased from ATCC), mouse P210-BaF3 (stably expressing BCR-ABL mutant activated kinase), mouse P210/T315I-BaF3 (stably expressing BCR-ABL/T315I mutant activated kinase), mouse FLT3-ITD-BaF3 (stably expressing FLT3/ITD mutant activated kinase), mouse TEL-FLT3-BaF3 (stably expressing FLT3 kinase), mouse TEL-cKIT-BaF3 (stably expressing cKIT kinase), mouse BaF3-tel/T670I-cKit (stably expressing cKIT/T670I mutant activated kinase), mouse Tel-VEGFR2-BaF3 (stably expressing VEGFR2 kinase), mouse Tel-PDGFRα-BaF3 (stably expressing PDGFRα kinase), mouse Tel-PDGFRβ-BaF3 (stably expressing PDGFRβ kinase), mouse Tel-RET-BaF3 (stably expressing RET kinase). The above cell lines were all constructed by our laboratory according to the following method: the kinase region sequences of human P210, P210/T315I, FLT3/ITD, FLT3, cKIT, cKIT/T670I, VEGFR2, PDGFRα, PDGFRβ, RET were respectively amplified by PCR, and inserted into MSCV-Puro vectors having N-terminal TEL or TPR fragments (Clontech). The vectors were stably transfected into mouse BaF3 cells by means of retrovirus, and the growth factor IL-3 were removed, eventually obtaining cell lines that depend on transferred protein P210, P210/T315I, FLT3/ITD, FLT3, cKIT, cKIT/T670I, VEGFR2, PDGFRα, PDGFRβ, or RET.
(§2) GI50 (unit: μM) was calculated by quantifying the number of living cells based on quantitative measurement of reductive dehydrogenase in living cells with CCK8 cell viability assay kit (Bestbio, China).

[2] = test system: P210-BaF3; test: Proliferation of P210-BaF3 cells, CCK8 cell viability assay; format: cell-based; settings: Mus musculus, 72 hours, stably expressing BCR-ABL mutant activated kinase
From the text: as §1, §2

[3] = test system: P210/T315I-BaF3; test: Proliferation of P210/T315I-BaF3 cells, CCK8 cell viability assay; format: cell-based; settings: Mus musculus, 72 hours, stably expressing BCR-ABL/T315I
From the text: as §1, §2

[4] = test system: Tel-cKit-BaF3; test: Proliferation of Tel-cKit-BaF3 cells, CCK8 cell viability assay; format: cell-based, mouse; settings: Mus musculus; 72 hours, CCK8; stably expressing cKIT kinase
From the text: as §1, §2

[5] = test system: Tel-cKit/T670I-BaF3; test: Proliferation of Tel-cKit/T670I-BaF3 cells, CCK8 cell viability assay; format: cell-based; settings: Mus musculus, 72 hours, stably expressing cKIT/T670I
From the text: as §1, §2

[6] = test system: Tel-FLT3-BaF3; test: Proliferation of Tel-FLT3-BaF3 cells, CCK8 cell viability assay; format: cell-based; settings: Mus musculus, 72 hours, stably expressing FLT3 kinase
From the text: as §1, §2

[7] = test system: FLT3-ITD-BaF3; test: Proliferation of FLT3-ITD-BaF3 cells, CCK8 cell viability assay; format: cell-based; settings: Mus musculus, 72 hours, stably expressing FLT3/ITD
From the text: as §1, §2

[8] = test system: TEL-PDGFRα-BaF3; test: Proliferation of TEL-PDGFRα-BaF3 cells, CCK8 cell viability assay; format: cell-based; settings: Mus musculus, 72 hours, stably expressing PDGFRα kinase
From the text: as §1, §2

[9] = test system: TEL-PDGFRβ-BaF3; test: Proliferation of TEL-PDGFRβ-BaF3 cells, CCK8 cell viability assay; format: cell-based; settings: Mus musculus, 72 hours, stably expressing PDGFRβ kinase
From the text: as §1, §2

[10] = test system: TEL-VEGFR2-BaF3; test: Proliferation of TEL-VEGFR2-BaF3 cells, CCK8 cell viability assay; format: cell-based; settings: Mus musculus, 72 hours, stably expressing VEGFR2 kinase
From the text: as §1, §2

[11] = test system: Tel-RET-BaF3; test: Proliferation of Tel-RET-BaF3 cells, CCK8 cell viability assay; format: cell-based; settings: Mus musculus, 72 hours, stably expressing RET kinase
From the text: as §1, §2

Structure (SMILES)	GI50 [1] [µM]	GI50 [2] [µM]	GI50 [3] [µM]	GI50 [4] [µM]	GI50 [5] [µM]	GI50 [6] [µM]	GI50 [7] [µM]	GI50 [8] [µM]	GI50 [9] [µM]	GI50 [10] [µM]	GI50 [11] [µM]
CC(=O)Nc1cc(Sc2ccc(NC(=O)Cc3ccccc3C(F)(F)F)cc2)ncn1 [Example 67, N-[4-(6-acetylamino-pyrimidin-4-ylsulfanyl)-phenyl]-2-(2-trifluoromethyl-phenyl)-acetamide]	> 10	8.08	9.79	6.17	> 10	1.47	0.291	0.014	0.312	7.82	
Cc1ccc(NC(=O)Nc2ccc(Oc3cc(NC4CCN(C(=O)OC(C)(C)C)CC4)ncn3)cc2)cc1C(F)(F)F [Example 99, 4-(6-{4-[3-(4-methyl-3-trifluoromethyl-phenyl)-ureido]-phenoxy}-pyrimidin-4-ylamino)-piperidin-1-tert-butyl Formate]	> 10			0.34	0.99	0.066	0.017	0.014	0.277	0.202	4.6
Cc1ccc(NC(=O)Nc2ccc(Oc3cc(NC4CCNCC4)ncn3)cc2)cc1C(F)(F)F [Example 103, 1-(4-methyl-3-trifluoromethyl-phenyl)-3-{4-[6-(piperidin-4-ylamino)-pyrimidin-4-yloxy]-phenyl}-urea]	> 10			3.22	9.53	0.48	0.19	0.07	0.355	2.89	> 10
Cc1ccc(NC(=O)Cc2ccc(Oc3cc(NCCN)ncn3)cc2)cc1C(F)(F)F [Example 137, 2-(4-((6-((2-aminoethyl)amino)pyrimidin-4-yl)oxy)phenyl)-N-(4-methyl-3-(trifluoromethyl)phenyl)acetamide]	> 10	> 10	9.93	0.465	0.323	0.04	0.012	0.011	0.034	0.149	
Cc1ccc(NC(=O)Cc2ccc(Nc3cc(NCCN)ncn3)cc2)cc1C(F)(F)F [Example 138, 2-{4-[6-(2-amino-ethylamino)-pyrimidin-4-ylamino]-phenyl}-N-(4-methyl-3-trifluoromethyl-phenyl)-acetamide]	> 10	> 10	> 10	2.6	0.377	0.034	0.014	0.017	0.079	0.711	
CCC(=O)NCCNc1cc(Nc2ccc(CC(=O)Nc3ccc(C)c(C(F)(F)F)c3)cc2)ncn1 [Example 139, N-[2-(6-{4-[(4-methyl-3-trifluoromethyl-phenylcarbamoyl)-methyl]-phenylamino}-pyrimidin-4-ylamino)-ethyl]-propanamide]	> 10	> 10	9.8	> 10	9.98	1	0.432	0.319	0.034	8.91	
C=CC(=O)NCCNc1cc(Nc2ccc(CC(=O)Nc3ccc(C)c(C(F)(F)F)c3)cc2)ncn1 [Example 140, N-[2-(6-{4-[(4-methyl-3-trifluoromethyl-phenylcarbamoyl)-methyl]-phenylamino}-pyrimidin-4-ylamino)-ethyl]-acrylamide]	> 10	> 10	9.61	> 10	> 10	1.11	0.377	0.131	0.17	9.67	
Cc1ccc(NC(=O)Nc2ccc(Oc3cc(NCC(N)=O)ncn3)cc2)cc1C(F)(F)F [Example 142, 2-(6-{4-[3-(4-methyl-3-trifluoromethyl-phenyl)-ureido]-phenoxy}-pyrimidin-4-ylamino)-acetamide]	> 10	> 10	> 10	0.736	1.84	0.162	0.054	0.007	0.008	9.67	

Results, then the molecule that gave them:

GI50 [1] [µM]	GI50 [2] [µM]	GI50 [3] [µM]	GI50 [4] [µM]	GI50 [5] [µM]	GI50 [6] [µM]	GI50 [7] [µM]	GI50 [8] [µM]	GI50 [9] [µM]	GI50 [10] [µM]	GI50 [11] [µM]	Structure (SMILES)
> 10	> 10	> 10	2.26	5.68	3	0.374	0.033	0.092	3.42		CC(C)(C)C(=O)Nc1cc(Oc2ccc(NC(=O)Cc3ccc(C(F)(F)F)cc3)cc2)ncn1 [Example 52, 2,2-dimethyl-N-(6-{4-[2-(4-trifluoromethyl-phenyl)-acetylamino]-phenoxy}-pyrimidin-4-yl)-propanamide]
> 10	> 10	> 10	0.917	1.88	0.195	0.014	0.011	0.026	0.433		CC(=O)Nc1cc(Oc2ccc(NC(=O)Cc3ccc(C)c(C)c3)cc2)ncn1 [Example 60, N-[4-(6-acetylamino-pyrimidin-4-yloxy)-phenyl]-2-(3,4-dimethyl-phenyl)-acetamide]
5.71	5.61	9.77	4.89	> 10	1.39	0.063	0.074	0.233	1.78		COc1ccc(CC(=O)Nc2ccc(Oc3cc(NC(C)=O)ncn3)cc2)cc1OC [Example 61, N-[4-(6-acetylamino-pyrimidin-4-yloxy)-phenyl]-2-(3,4-dimethoxy-phenyl)-acetamide]
> 10	> 10	> 10	0.81	6.58	0.39	0.05	0.045	0.231	1.18		COc1cc(CC(=O)Nc2ccc(Oc3cc(NC(C)=O)ncn3)cc2)cc(OC)c1OC [Example 62, N-[4-(6-acetylamino-pyrimidin-4-yloxy)-phenyl]-2-(3,4,5-trimethoxy-phenyl)-acetamide]
> 10	> 10	> 10	> 10	> 10	4.68	0.325	0.476	5.75	3.43		CC(=O)Nc1cc(Oc2ccc(NC(=O)C(O)c3ccccc3F)cc2)ncn1 (stereo not drawn) [Example 63, N-[4-(6-acetylamino-pyrimidin-4-yloxy)-phenyl]-2-(2-fluoro-phenyl)-2-hydroxy-acetamide]
> 10	> 10	> 10	0.376	1.07	0.612	0.024	0.012	0.084	0.277		CC(=O)Nc1cc(Oc2ccc(NC(=O)Cc3ccc(C(C)(C)C)cc3)cc2)ncn1 [Example 65, N-[4-(6-acetylamino-pyrimidin-4-yloxy)-phenyl]-2-(4-tert-butyl-phenyl)-acetamide]
9.01			1.52	8.08	0.6	0.03	0.063	0.342	1.66	5.82	Cc1ccc(NC(=O)Nc2ccc(Oc3cc(N4CCN(C(=O)OC(C)(C)C)C[C@H]4C)ncn3)cc2)cc1C(F)(F)F [Example 100, (R)-3-methyl-4-(6-(4-(3-(4-methyl-3-(trifluoromethyl)phenyl)ureido)phenoxy)pyrimidin-4-yl)piperazin-1-tert-butyl Formate]
8.48			1.8	5.13	0.67	0.29	0.014	0.173	2.89	3.62	Cc1ccc(NC(=O)Nc2ccc(Oc3cc(N4CCNCC4C)ncn3)cc2)cc1C(F)(F)F (stereo not drawn) [Example 104, 1-{4-[6-(2-methyl-piperazin-1-yl)-pyrimidin-4-yloxy]-phenyl}-3-(4-methyl-3-trifluoromethyl-phenyl)-urea]
